Here are results for 1 compound from ChEMBL document CHEMBL2074577, “Resistance to mitoxantrone in multidrug-resistant MCF7 breast cancer cells: evaluation of mitoxantrone transport and the role of multidrug resistance protein family proteins” (Cancer Res, 2001).

The data set addresses Multidrug resistance-associated protein 1 (Homo sapiens, UniProt P33527). The data set is described as follows: TP_TRANSPORTER: efflux in MCF7/VP and MCF cells. In kind it is functional, cell-based.

Multidrug resistance-associated protein 1, sequence (P33527 whole entry): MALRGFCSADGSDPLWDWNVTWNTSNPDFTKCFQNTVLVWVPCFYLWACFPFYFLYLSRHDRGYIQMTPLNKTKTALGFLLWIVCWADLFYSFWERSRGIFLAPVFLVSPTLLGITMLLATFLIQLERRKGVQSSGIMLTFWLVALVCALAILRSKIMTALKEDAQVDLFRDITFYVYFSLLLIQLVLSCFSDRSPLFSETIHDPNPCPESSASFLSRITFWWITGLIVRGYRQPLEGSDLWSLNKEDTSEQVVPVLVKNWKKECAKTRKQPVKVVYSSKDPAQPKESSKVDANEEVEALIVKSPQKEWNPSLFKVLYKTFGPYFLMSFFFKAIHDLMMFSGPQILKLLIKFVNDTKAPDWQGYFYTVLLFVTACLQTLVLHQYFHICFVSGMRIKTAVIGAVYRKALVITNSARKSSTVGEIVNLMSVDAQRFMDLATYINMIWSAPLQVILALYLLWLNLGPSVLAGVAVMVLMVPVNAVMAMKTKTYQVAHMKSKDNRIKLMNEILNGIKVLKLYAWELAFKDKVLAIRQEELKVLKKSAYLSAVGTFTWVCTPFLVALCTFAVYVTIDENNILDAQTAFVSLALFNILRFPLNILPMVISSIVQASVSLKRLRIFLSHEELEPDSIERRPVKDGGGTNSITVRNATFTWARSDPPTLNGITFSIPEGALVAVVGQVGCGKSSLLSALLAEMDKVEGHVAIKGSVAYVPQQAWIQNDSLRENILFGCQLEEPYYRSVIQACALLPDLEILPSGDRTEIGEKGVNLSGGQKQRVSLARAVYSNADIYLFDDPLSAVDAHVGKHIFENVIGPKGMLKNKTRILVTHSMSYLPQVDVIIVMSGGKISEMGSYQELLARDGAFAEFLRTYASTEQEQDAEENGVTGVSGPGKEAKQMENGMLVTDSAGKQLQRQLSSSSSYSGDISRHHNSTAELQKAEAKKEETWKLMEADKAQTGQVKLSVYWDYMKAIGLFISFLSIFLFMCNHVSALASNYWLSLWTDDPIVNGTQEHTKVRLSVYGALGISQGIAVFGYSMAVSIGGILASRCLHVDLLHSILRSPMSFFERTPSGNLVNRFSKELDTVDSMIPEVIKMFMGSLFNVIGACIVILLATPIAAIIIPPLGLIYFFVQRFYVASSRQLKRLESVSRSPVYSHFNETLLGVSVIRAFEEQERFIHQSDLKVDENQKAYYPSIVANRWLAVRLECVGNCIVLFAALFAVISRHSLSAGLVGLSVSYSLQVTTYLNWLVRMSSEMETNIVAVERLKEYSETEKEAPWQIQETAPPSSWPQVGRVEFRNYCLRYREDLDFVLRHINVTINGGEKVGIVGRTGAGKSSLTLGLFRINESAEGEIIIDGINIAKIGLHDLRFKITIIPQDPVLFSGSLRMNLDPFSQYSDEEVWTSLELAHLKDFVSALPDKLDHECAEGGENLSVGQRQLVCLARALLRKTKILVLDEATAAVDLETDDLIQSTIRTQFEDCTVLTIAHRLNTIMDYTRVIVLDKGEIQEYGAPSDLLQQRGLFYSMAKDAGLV

In the case of `O=C1c2c(O)ccc(O)c2C(=O)c2c(NCCNCCO)ccc(NCCNCCO)c21` [MITOXANTRONE], the Activity result was “substrate [+]”.
